For data set [1] the following is noted: cited from earlier work.
Data set [2] in a line: pH study of dilute solutions of VertecBio solvents in water. Type of data set: physicochemical. The method, then: The Citrus and Gold blends were made of 80% Ethyl lactate and 20% d-limonene and methyl soyate respectively. The pH was measured at various intervals and was recorded.
(§1) The initial pH of the water was approximately 7.80 pH units.

Data set [3] can be described thus: pH study of dilute solutions of VertecBio solvents with dichlorvos. It is filed as physicochemical. As to conditions: solvent containing 1% dichlorvos. The protocol: In this example, the pH of a dilute solution of an organophosphate pesticide is tracked over time. The dilution into water is done without any surfactants.
The biosolvents were diluted in water at one, two, and three percent concentrations. The solvents, before being diluted, contained 1% dichlorvos. The VertecBio Citrus™ and Gold™ blends were made of 80% ethyl lactate and 20% d-limonene and methyl soyate respectively.
as §1

Data set [4] is described as follows: pH study of dilute solutions of VertecBio solvents with neem oil containing azadirachtin. The settings on record: solvent mixed with 3% (w/w) neem oil. It is filed as physicochemical. The method, then:
The biosolvents were mixed with 3% (w/w) neem oil containing the natural pesticide azadirachtin. These were diluted in water at one, two, and three percent concentrations. The Citrus™ and Gold™ blends were made of 80% ethyl lactate and 20% d-limonene and methyl soyate, respectively, as described above. […] The initial pH of the water was 7.80 pH units.

The text below walks through data of patent US20060199736A1, “Environmentally benign bioactive formulation” (priority 2002, published 2006).

With `CCCCNC(=O)n1c(NC(=O)OC)nc2ccccc21` [Benlate, benomyl], in data set [1], the “½ Life at pH 5.0” value was 30 hr and the “½ Life at pH 7.0” value is listed as 1 hr.
As for `O=C1C2CC=CCC2C(=O)N1SC(Cl)(Cl)Cl` (stereo not drawn) [Captan, captan], in data set [1], the “½ Life at pH 5.0” value is listed as 10 hr, the “½ Life at pH 7.0” value is 3 hr, the “½ Life at pH 8.0” value is on record as 10 min and the “½ Life at pH 9.0” value is 2 min.
Consider `CNC(=O)CSP(=S)(OC)OC` [Cygon, dimethoate], for which, in data set [1], the “½ Life at pH 6.0” value was 12 hr and the “½ Life at pH 9.0” value is recorded as 48 min.
Take `CCOP(=S)(OCC)Oc1nc(Cl)c(Cl)cc1Cl` [Dursban, chlorpyrofos]: in data set [1], the “½ Life at pH 5.0” value is 63 days, the “½ Life at pH 7.0” value is recorded as 35 days and the “½ Life at pH 8.0” value is listed as 1.5 days.
Regarding `CCOC(=O)C(C)O` (stereo not drawn) [Ethyl Lactate, ethyl lactate], the “pH of dilute solution” value in data set [2] (1% in water, 2 hours) is listed as 7.25; in data set [2] (1% in water, 4 hours), 7.10; in data set [2] (1% in water, 6 hours) it was 6.95; in data set [2] (1% in water, 8 hours), 7.11; in data set [2] (1% in water, 24 hours), 6.78; in data set [2] (1% in water, 48 hours) it was 6.75. For the same compound, the “pH of dilute solution” value in data set [2] (1% in water, 72 hours) worked out at 6.56; in data set [2] (1% in water, Initial) it was 7.75; in data set [2] (2% in water, 2 hours), 7.14; in data set [2] (2% in water, 4 hours) it was 7.00; in data set [2] (2% in water, 6 hours) it was 6.90; in data set [2] (2% in water, 8 hours) it was 6.90. The “pH of dilute solution” value in data set [2] (2% in water, 24 hours) amounted to 6.56; in data set [2] (2% in water, 48 hours), 6.43; in data set [2] (2% in water, 72 hours), 5.88; in data set [2] (2% in water, Initial), 7.65; in data set [2] (3% in water, 2 hours) it was 7.01; in data set [2] (3% in water, 4 hours) it was 6.90. Also, the “pH of dilute solution” value turned out to be 6.78 in data set [2] (3% in water, 6 hours); 6.79 in data set [2] (3% in water, 8 hours); 6.47 in data set [2] (3% in water, 24 hours); 5.93 in data set [2] (3% in water, 48 hours); 5.47 in data set [2] (3% in water, 72 hours); 7.54 in data set [2] (3% in water, Initial). Moreover, the “pH of dilute solution” value in data set [3] (1% in water, 4 hours) was 7.3; in data set [3] (1% in water, 24 hours), 7.15; in data set [3] (1% in water, 48 hours) it was 7.08; in data set [3] (1% in water, 72 hours) it was 6.89; in data set [3] (1% in water, Initial), 7.72; in data set [3] (2% in water, 24 hours) it was 6.92. The “pH of dilute solution” value was 6.55 in data set [3] (2% in water, 48 hours); 6.04 in data set [3] (2% in water, 72 hours); 7.5 in data set [3] (2% in water, Initial); 6.97 in data set [3] (3% in water, 4 hours); 6.6 in data set [3] (3% in water, 24 hours); 6.28 in data set [3] (3% in water, 48 hours). The “pH of dilute solution” value in data set [3] (3% in water, 72 hours) was determined as 5.45; in data set [3] (3% in water, Initial), 7.51; in data set [4] (1% in water, 4 hours) it was 7.43; in data set [4] (1% in water, 24 hours), 6.77; in data set [4] (1% in water, 48 hours), 6.94; in data set [4] (1% in water, 72 hours) it was 6.39. Further, the “pH of dilute solution” value turned out to be 7.59 in data set [4] (1% in water, Initial); 6.74 in data set [4] (2% in water, 48 hours); 6.02 in data set [4] (2% in water, 72 hours); 7.41 in data set [4] (2% in water, Initial); 6.68 in data set [4] (3% in water, 24 hours); 6.61 in data set [4] (3% in water, 48 hours). Moreover, the “pH of dilute solution” value stood at 5.78 in data set [4] (3% in water, 72 hours) and 7.31 in data set [4] (3% in water, Initial).
For `COP(=S)(OC)SCn1nnc2ccccc2c1=O` [Guthion, azin-phos methyl], in data set [1], the “½ Life at pH 5.0” value is 60 hr and the “½ Life at pH 9.0” value is given as 12 hr.
`COP(=S)(OC)SCN1C(=O)c2ccccc2C1=O` [Imidan, phosmet]: in data set [1], the “½ Life at pH 5.0” value was 7 days, the “½ Life at pH 7.0” value is on record as 12 hr and the “½ Life at pH 8.0” value was 4 hr.
As to `CCOC(=O)CC(SP(=S)(OC)OC)C(=O)OCC` (stereo not drawn) [Malathion, malathion], in data set [1], the “½ Life at pH 6.0” value is listed as 8 days, the “½ Life at pH 7.0” value is given as 3 days, the “½ Life at pH 8.0” value was 19 hr and the “½ Life at pH 9.0” value was 5 hr.
For `CNC(=O)Oc1cccc2ccccc12` [Sevin, carbaryl], in data set [1], the “½ Life at pH 7.0” value is listed as 10 days and the “½ Life at pH 9.0” value is listed as 24 hr.
